Results reported in patent publication EP1287854B1 (Cancer Research Technology Limited, priority 2001, dated 2003).
Where “and” joins values, the source holds several entries; their conditions need not be identical. Equal values may be shown once. Marks after values point to notes of the source that are not given here.

What was measured:
[1] = test system: Murine mammary carcinoma MDAH-Mca-4 tumours; assay: Tumour growth delay and cures, MDAH-Mca-4 tumours grown i.m. in mice; assay type: in vivo, female C3H/HeN mice; conditions: for activity against the MDAH-Mca-4 tumour (in words): single i.p. dose, alone or co-administered with DMXAA 80 µmol/kg
Method: (§1) Murine mammary carcinoma MDAH-Mca-4 tumours were grown in female C3H/HeN mice from stocks stored in liquid nitrogen at the sixth transplant generation, and were passaged and used for experiments at the eighth transplant generation. Tumours for experiments were grown by inoculating 20 µl of cell suspension ([…] packed cells) intramuscularly in the right gastrocenmius muscle. Animals were randomised to treatment groups, and treated with drugs when the diameter of the tumour-bearing leg reached 10-11 mm (ca. 0.6 g tumour), approximately 18 days after inoculation. […] Both compounds were administered essentially at the same time (within 1 min). Host toxicity was assessed by determination of lethality, and by measurement of body weight 4-5 days after drug treatment. The diameter of the tumour-bearing leg was measured three times weekly until values exceeded 13 mm (ca 1.4 g tumour) at which time the animals were terminated. The growth curve for each individual tumour was plotted as in Figure 1, and the time-to-endpoint (TTE, time from treatment to endpoint) was determined for each mouse. The median and mean TTE was determined for each treatment group. The mean tumour growth delay for each group was calculated as the difference between mean TTE for treated and control groups. The statistical significance of the antitumour effects was tested using ANOVA followed by Dunnett's test to determine p values for the significance of differences between individual groups.
Animals and Tumours: Murine mammary carcinoma MDAH-Mca-4 tumours were grown from stocks stored in liquid nitrogen at the sixth transplant generation. Tumours (eighth transplant generation when used) were grown from 20 µl of cell suspension (7 mg packed cells), inoculated i.m. in the right gastrocnemius muscle of female C3H/HeN mice (22-25 g at the time of treatment). Mice were randomised to treatment which commenced when the tumour + leg diameter reached 10-11 mm (0.5-0.7 g tumour).
(§2) Toxicity was assessed as lethality, and body weight loss measured four days after treatment. Any animals becoming moribund were terminated and treated as drug-related deaths in the analysis. The diameter of the tumour-bearing leg was measured 3 times per week after treatment. Antitumour activity was assessed from the tumour growth delay, defined as the difference in time to reach the endpoint of 13 mm (1.5 g tumour) for treated and control groups. Responses were classed as cures if animals were free of evident tumour 120 days after treatment. The statistical significance of tumour growth inhibition was tested by ANOVA using SAS for Windows, with Dunnett's test to evaluate p-values for differences between treatment groups. In experiments with substantial numbers of cures (free of tumour for > 120 days after treatment), statistical significance was tested by Kruskal-Wallis non-parametric analysis of variance using SAS for Windows, and the difference between treatment and control groups by Dunn's test using Sigmastat v2.0.

[2] = Host toxicity: lethality, body weight change, MTD in tumour-bearing mice; conditions: for lowering of the MTD for the chemotherapy drug in the combination: co-administration of DMXAA 80 µmol/kg, one dose level; for MTD: MTD (µmol/kg)
Method: as §1, §2

in vivo = conditions: female, C3H/HeN, mouse; for AUC: intraperitoneal
Method: (§3) At various times blood was collected from the retro-orbital sinus of anaesthetised mice into heparinised tubes, and the plasma separated by centrifugation. Tumours were rapidly dissected and frozen at -80°C. Groups of 2-5 mice were used for each time point.
(§4) LC-MS analysis of paclitaxel: Concentrations of paclitaxel in plasma and tumour were determined by HPLC with detection by positive mode electrospray mass spectrometry. Aliquots of plasma (50 µl) were treated with 1ml of ice-cold acetonitrile:methanol (3:1 v/v) to precipitate proteins. Following addition of 5 µl of an internal standard solution (10 mM cephalomannine), samples were centrifuged, and the resulting supernatants evaporated using a Speed-Vac solvent concentrator (Savant Instruments, NY). The residues were dissolved in 100 µl of 1:1 (v/v) methanol:mobile phase (48% acetonitrile, 52% 1mM sodium acetate buffer (pH 6.2)), and 5-40 µl analysed by LC-MS. Frozen tumours were minced, then homogenised in 2 vol distilled water using a Polytron homogeniser. Ice-cold acetonitrile (1 ml), and 10 µl of internal standard (20 µM cephalomannine) was added to 200 µl of tumour homogenate. The samples were centrifuged and the supernatants dried as above. The residues were dissolved in 200 µl of 1:1 (v/v) methanol:mobile phase, and 5 µl analysed by LC-MS.
(§5) The LC-MS system was an Agilent HP1100/MSD (Hewlett Packard Waldbronn, Germany) with a 3.2 mm x 150 mm C8 5 µm column (Alltima Associates Inc., Deerfield, IL) and a flow rate of 0.7 ml/min. The mass detector used N2 as the nebulizing and drying gas (flow rate 10 L/min, 350°C; neubulizer pressure 25 psi, capillary voltage 2500 V, fragmentor voltage 120 V). Paclitaxel (MW 854) and cephalomannine internal standard (MW 832) were detected, using single ion monitoring, as sodium adducts at m/z of 876 and 854, respectively. Spiking of control material indicated assay linearity from 0.3-30 µM for both plasma and tumour (r^2 = 0.999). The intra- and inter- assay precision and accuracy gave coefficients of variation ≤ 5%, and recoveries in the range 92-102%. The lower limit of detection of paclitaxel in plasma and tumour (signal:noise ratio of 3) was 0.3 µM.
(§6) Aliquots of plasma (50 µl) were treated with 1 ml of ice-cold acetonitrile:methanol (3:1 v/v), centrifuged, and the resulting supernatants evaporated as above. The residues were dissolved in 200 µl of 10 mM ammonium acetate buffer (pH 5) and 25 µl was analysed by HPLC using a HP1100 system with diode array detector (278 nm) and fluorescence detector. The column and flow rate were as for paclitaxel above, with a mobile phase of 16% acetonitrile (v/v) in 10 mM ammonium acetate buffer (pH 5). […] The intra- and inter- assay precision and accuracy gave coefficients of variation <7%, and an average recovery of 70%. The lower sensitivity limit of detection by fluorescence (signal:noise ration of 3) was 0.1 µM.
(§7) Pharmacokinetic Modelling: Modelling of pharmacokinetic data was done using ModelMaker version 4.0 (Cherwell Scientific Limited, The Magdalen Centre, Oxford Science Park, Oxford OX4 4GA, United Kingdom). The following pharmacokinetic parameters were used: Kabs, the first-order rate constant for absorption into the central compartment; Cl, total body clearance; Clinter, intercompartmental clearance; Vd, apparent volume of distribution of the central compartment; Vd2, apparent volume of distribution of the second compartment; Km, Michaelis-Menten constant; Vmax, theoretical maximum rate; AUC, area under the concentration-time curve. For all compounds it was assumed that all of the administered dose would reach the central compartment (i.e. 100% bioavailability). Differences between treatment groups were tested using a F-test comparing the entire curves and if this difference was significant (i.e. p≤0.05) the estimates of each individual model parameter for both groups were tested using a 2-tailed t-test.

[3] = Pharmacokinetics in plasma and tumour of tumour-bearing mice
Method: as §3, §4, §5, §6, §7

MDAH-Mca-4 tumour = assay: Tumour blood flow inhibition, Hoechst 33342 perfusion marker; assay type: in vivo, mice; conditions: DMXAA at 80 µmol/kg (Fig 6A)
Method: Tumour blood flow inhibition: Tumour blood flow was assessed using the fluorescent perfusion marker Hoechst 33342 (8mg/ml in saline), which was administered i.v. at various times after drug treatment. Mice were scarified 2 min later, and frozen sections (14 µm) prepared from the distal, central and proximal regions of each tumour. Sections were examined with a Nikon epifluorescence microscope at 10x magnification using a UV-1A filter block (excitation 365 nm, barrier filter 400 nm, and dichroic mirror 400 nm). A grid with 81 squares (100 x 100 µm), was used for point scoring of staining. The whole area of each section was scored to avoid bias between peripheral and central regions (which were less well perfused). Normal tissue was excluded but necrotic areas were included. Differences between groups were treated for significance using the Student's t-test (Sigma Stat, version-2.0; Jandel Scientific Limited).

[4] = DMXAA 80 µmol/kg alone, i.p. once (Table 1)
[5] = chemotherapy drug alone, linear regression of growth delay on dose
[6] = chemotherapy drug co-administered with DMXAA 80 µmol/kg, linear regression
[7] = paclitaxel 31.6 µmol/kg alone, i.p. once
[8] = paclitaxel 31.6 µmol/kg alone, i.p. once, 7 mice treated
[9] = chemotherapy drug alone at its MTD, i.p.
[10] = chemotherapy drug at MTD of combination, co-administered with DMXAA 80 µmol/kg
[11] = female, C3H/HeN, mouse, in vivo, ip, chemotherapy drug alone (no DMXAA)
[12] = female, C3H/HeN, mouse, in vivo, ip, chemotherapy drug co-administered with DMXAA 80 µmol/kg

SMILES: Cc1ccc2c(=O)c3cccc(CC(=O)O)c3oc2c1C [DMXAA, 5,6-dimethylxanthenone-4-acetic acid]
- Growth delay (days) Median ([1]; DMXAA 80 µmol/kg alone (Table 3, interim analysis)): 10.5 days
- Growth delay (days) Mean [1, 4]: 8.3 days
- Number of mice Cures ([1]; DMXAA 80 µmol/kg alone, i.p. once, 7 mice treated (Table 1)): 0
- mean tumour growth delays (range over experiments) ([1]; DMXAA alone at 80 µmol/kg): 3.5 to 8.3 days
- tumour growth delay, overall mean ([1]; DMXAA alone at 80 µmol/kg, all experiments): 6.6 ± 0.6 days
- % Body weight change (d4-5) Mean ([2]; DMXAA 80 µmol/kg alone (Table 3)): -4.8%
- % Body weight change (d4-5) Mean [2, 4]: -4.1%
- AUC (in vivo; plasma, 80 umol/kg): 3630 µM·h
- Km (in vivo; plasma, ip, 80 µmol/kg): 220 µM
- effect of co-administration on DMXAA plasma pharmacokinetic parameters ([3]; DMXAA 80 µmol/kg with paclitaxel at 23.7 µmol/kg): unaffected
- Vmax (µM hr^-1) ([3]; Plasma, DMXAA 80 µmol/kg i.p., parentheses % CV): 63 (6.1) µM hr^-1
- inhibition of tumour blood flow (H33342 perfusion), time course (MDAH-Mca-4 tumour): prompt and irreversible blood flow shutdown, with no recovery by 24 hr

SMILES: CC(=O)O[C@H]1C(=O)[C@@]2(C)[C@H]([C@H](OC(=O)c3ccccc3)[C@]3(O)C[C@H](OC(=O)[C@H](O)[C@@H](NC(=O)c4ccccc4)c4ccccc4)C(C)=C1C3(C)C)[C@]1(OC(C)=O)CO[C@@H]1C[C@@H]2O [paclitaxel, 5β, 20-Epoxy-1,2a,4,7β,10β,13a-hexahydroxytax-11-en-9-one 4,10-diacetate 2-benzoate 13-ester with (2R, 3 S)-N-benzoyl-3-phenylisoserine]
- antitumour activity ([1]; DMXAA dose-response experiment (Fig 5), paclitaxel alone at 23.7 µmol/kg): no significant activity
- Slope of dose/response [1, 5]: 0.08 ± 0.06 days/µmol/kg
- Slope of dose/response [1, 6]: 1.83 ± 0.4 days/µmol/kg
- DMF ([1]; gradient with DMXAA/gradient without DMXAA, estimated using upper error estimate of the slope for the chemotherapy drug only): significantly greater than unity
- DMF ([1]; gradient with DMXAA/gradient without DMXAA, estimated using upper error estimate of the slope for the chemotherapy drug only, listed as Paclitaxel): >13^c
- Growth delay (days) Mean [1, 7]: 0.1 days
- Number of mice Cures [1, 8]: 0
- Growth delay (days) Mean ([1]; paclitaxel 42.1 µmol/kg alone, i.p. once): 4 days and 4.3 days
- Number of mice Cures ([1]; paclitaxel 42.1 µmol/kg alone, i.p. once, 7 mice treated): 0
- activity against the MDAH-Mca-4 tumour (in words) [1]: essentially inactive
- % body weight change at 4 days [2, 9]: 0.3 ± 1.1%
- % body weight change at 4 days [2, 10]: -3.9 ± 1.2%
- lowering of the MTD for the chemotherapy drug in the combination [2]: 1.33 fold
- Number of mice Deaths ([2]; female, C3H/HeN, mouse, in vivo, ip, 42.1 µmol/kg): 0
- MTD [2, 11]: 42.1 µmol/kg
- MTD [2, 12]: 31.6 µmol/kg
- % Body weight change (d4-5) Mean ([2]; mouse, in vivo, ip): 0.3%
- % Body weight change (d4-5) Mean [2, 7]: 1.9%
- Number of mice Deaths [2, 8]: 0
- AUC (in vivo; plasma, 23.7 umol/kg): 18.8 µM·h
- AUC (in vivo; tumour, 23.7 umol/kg): 32.8 µM·h

SMILES: CC(=O)O[C@@]12CO[C@@H]1C[C@H](O)[C@@]1(C)C(=O)[C@H](O)C3=C(C)[C@@H](OC(=O)[C@H](O)[C@@H](NC(=O)OC(C)(C)C)c4ccccc4)C[C@@](O)([C@@H](OC(=O)c4ccccc4)[C@H]21)C3(C)C [docetaxel, (2R,3S)-N-carboxy-3-phenylisoserine, N tert-butyl ester, 13-ester with 5b-20-epoxy-1,2a,4,7b,10b,13a-hexahydroxytax-11-en-9-one 4-acetate 2-benzoate trihydrate]
- Growth delay (days) Median ([1]; Docetaxel 17.8 µmol/kg alone, interim analysis): -1.7 days
- Growth delay (days) Median ([1]; Docetaxel 23.7 µmol/kg alone, interim analysis): 0.8 days
- Slope of dose/response [1, 5]: -0.02 ± 0.14 days/µmol/kg
- Slope of dose/response [1, 6]: 1.37 ± 0.22 days/µmol/kg
- DMF ([1]; gradient with DMXAA/gradient without DMXAA, estimated using upper error estimate of the slope for the chemotherapy drug only, trihydrate): significantly greater than unity
- DMF ([1]; im): >9^c
- activity against the MDAH-Mca-4 tumour (in words) ([1]; listed as Docetaxel, trihydrate): essentially inactive
- activity against the MDAH-Mca-4 tumour (in words) ([1]; trihydrate): essentially devoid of activity
- % Body weight change (d4-5) Mean ([2]; Docetaxel 17.8 µmol/kg alone): -1.8%
- Number of mice Deaths ([2]; Docetaxel 17.8 µmol/kg alone, 2 mice treated, interim analysis): 0
- % Body weight change (d4-5) Mean ([2]; Docetaxel 23.7 µmol/kg alone): -4.1%
- Number of mice Deaths ([2]; Docetaxel 23.7 µmol/kg alone, 5 mice treated, interim analysis): 0
- % body weight change at 4 days [2, 9]: -4.1 ± 1.3%
- % body weight change at 4 days [2, 10]: -7.2 ± 1.2%
- lowering of the MTD for the chemotherapy drug in the combination [2]: 1.33 fold
- MTD [2, 11]: 23.7 µmol/kg
- MTD [2, 12]: 17.8 µmol/kg
